Experimental data published in article PMC12615753, “Glutathione as a taste modulator: molecular mechanisms of interaction with umami and sweet taste receptors” (Food Chemistry: Molecular Sciences, 2025).

Target: T1, hTAS1R1 D192A/rTAS1R3 (UniProt Q7RTX1+Q923K1, D192A)
T1 construct: UniProtKB number Q7RTX1–1); The cDNA coding region of rTAS1R3 was synthesized with optimized-codon usage for human expression; expressed in transfected cells; host or cells: HEK293T/17
T1 sequence (Q7RTX1 21-841 D192A): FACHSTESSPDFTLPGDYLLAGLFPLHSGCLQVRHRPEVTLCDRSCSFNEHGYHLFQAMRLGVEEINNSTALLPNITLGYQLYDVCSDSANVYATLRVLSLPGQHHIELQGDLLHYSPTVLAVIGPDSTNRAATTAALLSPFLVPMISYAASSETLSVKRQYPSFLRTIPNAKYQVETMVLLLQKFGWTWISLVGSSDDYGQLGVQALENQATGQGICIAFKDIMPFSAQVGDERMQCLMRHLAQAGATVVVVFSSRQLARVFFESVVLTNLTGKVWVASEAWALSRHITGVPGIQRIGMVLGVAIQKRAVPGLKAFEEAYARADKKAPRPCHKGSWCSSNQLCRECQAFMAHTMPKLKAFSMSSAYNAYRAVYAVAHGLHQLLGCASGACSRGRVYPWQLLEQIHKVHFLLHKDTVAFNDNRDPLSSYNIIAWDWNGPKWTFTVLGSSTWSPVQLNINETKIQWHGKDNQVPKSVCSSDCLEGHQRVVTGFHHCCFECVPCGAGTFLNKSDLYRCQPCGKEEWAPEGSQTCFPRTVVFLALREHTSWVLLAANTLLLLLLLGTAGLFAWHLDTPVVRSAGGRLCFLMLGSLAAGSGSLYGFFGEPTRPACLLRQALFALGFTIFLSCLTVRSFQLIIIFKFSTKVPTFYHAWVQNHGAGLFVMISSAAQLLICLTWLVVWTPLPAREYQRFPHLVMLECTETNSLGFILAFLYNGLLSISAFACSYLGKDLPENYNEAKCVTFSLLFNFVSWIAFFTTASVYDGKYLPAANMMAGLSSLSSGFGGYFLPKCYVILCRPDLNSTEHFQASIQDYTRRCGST
T1 sequence (Q923K1 21-858): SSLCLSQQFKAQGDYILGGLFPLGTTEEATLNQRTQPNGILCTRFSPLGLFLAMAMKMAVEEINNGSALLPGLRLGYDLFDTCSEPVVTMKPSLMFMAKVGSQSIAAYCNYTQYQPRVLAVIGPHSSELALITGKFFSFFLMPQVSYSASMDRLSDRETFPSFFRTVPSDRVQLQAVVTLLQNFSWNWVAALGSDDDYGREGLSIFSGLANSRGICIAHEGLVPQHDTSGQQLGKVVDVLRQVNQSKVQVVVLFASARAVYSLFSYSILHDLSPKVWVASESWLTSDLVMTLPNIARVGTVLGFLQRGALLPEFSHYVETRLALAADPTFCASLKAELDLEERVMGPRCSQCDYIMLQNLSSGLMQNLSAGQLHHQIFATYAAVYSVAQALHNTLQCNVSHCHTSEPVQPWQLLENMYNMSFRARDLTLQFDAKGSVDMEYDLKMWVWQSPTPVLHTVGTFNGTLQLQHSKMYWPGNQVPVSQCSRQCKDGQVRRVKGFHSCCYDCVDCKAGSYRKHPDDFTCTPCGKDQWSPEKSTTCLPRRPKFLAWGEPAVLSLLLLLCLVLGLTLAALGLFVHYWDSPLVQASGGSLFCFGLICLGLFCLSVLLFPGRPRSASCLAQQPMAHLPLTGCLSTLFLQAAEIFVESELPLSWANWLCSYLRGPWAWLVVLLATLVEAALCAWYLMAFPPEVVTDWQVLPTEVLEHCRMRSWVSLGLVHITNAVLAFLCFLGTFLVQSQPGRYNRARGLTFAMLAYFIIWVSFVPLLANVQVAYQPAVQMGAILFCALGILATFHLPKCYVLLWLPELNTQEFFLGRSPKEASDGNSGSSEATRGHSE
Experiment: cell-based
Format: cell-based, human, rat
Description: Chimeric Gα proteins, such as Gα16Gust44, Gα16Gi3 or Gα15i2, are widely used in the functional expression of TAS1R receptors ([Backes et al., 2015]; [Suess et al., 2015]; [Toda et al., 2021], [Toda et al., 2013], [Toda et al., 2018]; [Zhang et al., 2008]). Chimeric Gα15i2 (([Toda et al., 2013]), Supplementary data) was generated by replacing the last five residues of the C-terminal tail of rat Gα15i2 (EINLL) (UniProt number G3V6N8; https://www.uniprot.org/uniprot/) with the counterpart sequence from human GNAI2 (DCGLF) (UniProt number P04899-1) and cloning into the pcDNA3.1/Hygro vector (Invitrogen, Thermo Fisher Scientific, Illkirch, France) between the HindIII and NotI restriction sites, resulting in the plasmid pcDNA3.1-Gα15i2. Chimeric Gα16Gust44 construct have already been reported ([Raliou et al., 2011]). Briefly, Gα16Gust44 was generated by replacing the C-terminal of Gα16 with the C-terminal 44 residues of gustducin. As previously described, hTAS1R1 was amplified from human fungiform papillae cDNA and cloned and inserted into pcDNA3 (Invitrogen), generating pcDNA3-TAS1R1-WT (wild-type) ([Raliou et al., 2011]). […] The cDNA coding region of rTAS1R3 was synthesized with optimized-codon usage for human expression (Genewiz) and was cloned and inserted into the mammalian pcDNA4/myc-HisA (Invitrogen) expression vector between the EcoRI and NotI restriction sites, resulting in the plasmid pcDNA4-rTAS1R3. […] The sequence integrity of all the plasmid constructs was verified via automated DNA sequencing (Genewiz).
The hTAS1R1 mutants were co-expressed with the rTAS1R3 subunit in HEK293 cells. […] As a control, the functionality of the mutated receptors was checked after stimulation with S807 (Fig. S8), which interacts with TAS1R1-TMD ([Zhang et al., 2008]).

## N[C@@H](CCC(=O)N[C@@H](CS)C(=O)NCC(=O)O)C(=O)O [GSH, γ-L-glutamyl-L-cysteinyl-glycine]
  EC50: 3.25 ± 0.061 mM
D192A
  effect of the added compound (1 mM) on the response to L-Glu: synergy was observed
  response to the agonist alone, vs WT: significantly increased the initial amplitude
D192A, GSH
  Max ∆F/F0: 0.65 ± 0.01
  R1 = mutant EC50/WT EC50: 1.3
